Values of other authors, collected in patent publication US9700574B2, “Use of secnidazole in treatment of dental infections” (ATHENA PHARMACEUTIQUES SAS, priority 2011, dated 2017).

Key:
[1] = in vivo
tested microorganisms = conditions: in vitro; oro-dental gel for the periodontal pocket; Drug Development and Industrial Pharmacy 34:1356-1367, 2008

Structure (SMILES)	half-life [1]	minimal inhibition concentration for the tested microorganisms (tested microorganisms)
CC[C@H]1OC(=O)[C@H](C)[C@@H](O[C@H]2C[C@@](C)(OC)[C@@H](O)[C@H](C)O2)[C@H](C)[C@@H](O[C@@H]2O[C@H](C)C[C@H](N(C)C)[C@H]2O)[C@](C)(O)C[C@@H](C)CN(C)[C@H](C)[C@@H](O)[C@]1(C)O [azithromycine]	about 20 hours	
Cc1ncc([N+](=O)[O-])n1CC(C)O (stereo not drawn) [secnidazole, alpha-2-dimethyl-5-nitro-1H-imidazole-1-ethanol]	about 25 hours	0.125-5 μg of secnidazole per ml of gel
